Reference: patent US20210154170A1, “METHODS OF TREATING NEUROPATHIC PAIN” (Biogen MA Inc., priority 2018, published 2021)
Where two headings read alike, the source gives them in different places.

What was measured:
[1] = tested on: healthy participants; test: Phase 1 cross-over study, ambulatory blood pressure monitoring (ABPM); format: in vivo, human; conditions: for DBP: Change >10 and absolute value >80 mmHg, observations / SBP: Change >10 and absolute value >130 mmHg, observations: 300-400 mg repeat dose; for BIIB074-Placebo difference in change of 24 h average DBP / BIIB074-Placebo difference in change of 24 h average SBP / LS Mean change in 24 h average DBP from baseline / LS Mean change in 24 h average SBP from baseline: outpatient
Description: This was a Phase 1, randomized, double-blind, placebo-controlled, repeat dose, 2-period cross-over study to investigate the effect of BIIB074 300-400 mg bid on ambulatory blood pressure (ABP) in healthy participants (FIG. 2). The study comprised: screening (to occur a maximum of 30 days before the first baseline assessment); two 36-day treatment periods, each preceded by a baseline visit and separated by a 7-day washout (to minimize possible carry over effects); and a follow-up period of 7-14 days after last dose. Prior to this study, no females had received BIIB074; for this reason, a single dose BIIB074 session at the dose level of 400 mg was also conducted in female participants one week prior to the period 1 baseline visit. Following this session, some participants were predicted to exceed the predefined PK limit (area under the plasma concentration-time curve [AUC] 97 μg·h/mL) when receiving 400 mg bid at steady state. Therefore, in the subsequent phases of the study, all female participants received a lower dose of 300 mg bid (males received 400 mg bid).
Participants were assigned to treatment sequences in accordance with a randomization schedule generated by Discovery Biometrics, prior to the start of the study, using validated software. Study treatment was BIIB074 400 mg bid for males/300 mg bid for females, or placebo, for 36 days. Prior to dosing, volunteers were randomized into one of the following treatment sequences, BIIB074 (period 1):placebo (period 2) or placebo (period 1):BIIB074 (period 2), and more specifically AB and BA if male and CAB and CBA if female, where A=placebo, B=BIIB074 400 mg bid in males and 300 mg bid in females, C=BIIB074 400 mg single dose in females. Randomization numbers were assigned by the site ensuring there was a balance of sequences (AB/BA and CAB/CBA) in each group. Periods 1 and 2 were double-masked to patients and study personnel.
The primary endpoint was change in 24 h average SBP and DBP from baseline to day 36 as determined by ABPM. Secondary outcome measures included: change in 24 h average SBP and DBP from baseline to days 4 and 15; change in average SBP and DBP within a 12 h dosing interval from baseline to days 14 and 35 (inpatient); change in 24 h average ambulatory heart rate from baseline to days 4, 15 and 36; proportion of participants whose 24 h SBP and DBP increased by <5, 5-9, 10-14, 15-19, and >20 mm Hg compared with baseline; PK parameters of BIIB074 following a single oral dose in healthy female participants, and following repeated oral doses given twice daily to healthy male and female participants; PK/pharmacodynamic (PD) analyses to examine the correlation between ABP and plasma levels and/or metrics of the systemic exposure of BIIB074.
ABP was collected over 24 hours on an outpatient basis at baseline and at days 4, 15 and 36, and over 12 hours on an inpatient basis at baseline, and at days 14 and 35. The ABPM device was placed on the non-dominant arm (except in clinical situations that prohibited measuring BP in the non-dominant arm). BP and heart rate were measured every 15 minutes.
Non-inferiority was based on the one-sided 95% confidence interval (CI) for BIIB074-placebo excluding an effect of >5 mmHg in SBP or DBP. It was planned to recruit approximately 60 participants in order to obtain a minimum of 48 evaluable for ABPM during the repeat dose phase, for at least 90% power, assuming a within-subject standard deviation (SDw) of 8.21 mmHg.
ABPM data were analyzed using a repeated measures mixed effects model, whereby fixed effects were treatment, day, treatment*day, period, average baseline*day, period adjusted baseline*day, sex and treatment*sex; random effect was subject; and repeated effect was day. All summary statistics were carried out using SAS 8.02 for UNIX running under the Harmonisation of Analysis and Reporting Program (HARP) environment. […]

[2] = Phase 1 study of effect of UGT inhibition by valproic acid on PK of BIIB074; format: in vivo, human; conditions: for AUC(0-inf) / AUC(0-t) / Cmax: human, plasma, oral; for AUC(0-inf): read-out: AUCinf, Geo LS mean; for AUC(0-t): read-out: AUClast, Geo LS mean; for Cmax: read-out: Cmax, Geo LS mean
Source text: In clinical practice BIIB074 may be coadministered with UGT inhibitors, which could potentially increase exposure to BIIB074 by reducing the extent of BIIB074 metabolism by UGTs. Valproic acid, which has long been used as a medication to treat seizures and bipolar disorder, is a non specific inhibitor of UGTs and has been used as a probe to determine the effect of UGT inhibition on the PK of compounds that are metabolized by multiple UGTs. Herein, the potential of the UGT inhibitor valproic acid to alter the single dose PK, safety, and tolerability of BIIB074 was assessed to inform the feasibility and safety of coadministration of BIIB074 with compounds known to inhibit UGTs.
• To evaluate the effect of multiple doses of the uridine diphosphate glucuronosyltransferase (UGT) inhibitor valproic acid on the single dose PK of BIIB074. • The primary endpoints that relate to this objective are: maximum observed concentration (Cmax), area under the curve (AUC) from time 0 to infinity (AUCinf), and AUC from time 0 to time of the last measurable concentration (AUClast) for BIIB074. • Other endpoints that relate to the primary objective are the time to reach Cmax (Tmax), time of the last measurable concentration (Tlast), t1/2 apparent clearance (CL/F), and apparent volume of distribution (V/F) for BIIB074.

[3] = BIIB074 with valproic acid/BIIB074 alone
[4] = single dose BIIB074 with valproic acid

In the case of `Cl.NC(=O)[C@@H]1CC[C@H](c2ccc(OCc3ccccc3F)cc2)N1` [Example 1, (5R)-5-(4-{[(2-Fluorophenyl)methyl]oxy}phenyl)-L-prolinamide hydrochloride], the “DBP: Change >10 and absolute value >80 mmHg, observations” value ([1]; Day 4, outpatient 24 h) is reported as 137 (10.6%) n (%), the “SBP: Change >10 and absolute value >130 mmHg, observations” value ([1]; Day 4, outpatient 24 h) is reported as 116 (9.0%) n (%) and the “DBP: Change >10 and absolute value >80 mmHg, observations” value ([1]; Day 15, outpatient 24 h) is reported as 109 (8.3%) n (%). For the same molecule, the “SBP: Change >10 and absolute value >130 mmHg, observations” value ([1]; Day 15, outpatient 24 h) was 95 (7.2%) n (%), the “DBP: Change >10 and absolute value >80 mmHg, observations” value ([1]; Day 36, outpatient 24 h) was 86 (6.9%) n (%) and the “SBP: Change >10 and absolute value >130 mmHg, observations” value ([1]; Day 36, outpatient 24 h) was 63 (5.0%) n (%). The “Slope of linear relationship DBP vs observed plasma concentration” value ([1]; PK/PD analysis, inpatient ABPM) was “approximately 0.00077±0.00012 mmHg/(ng/mL)”, the “Slope of linear relationship SBP vs observed plasma concentration” value ([1]; PK/PD analysis, inpatient ABPM) was ~0.00056±0.00013 mmHg/(ng/mL) and the “Average increase of SBP with plasma concentration” value ([1]; PK/PD analysis, over the 24 h interval) was < 2 mmHg. For the same molecule, the “Upper bound of one-sided 95% CI for BIIB074-placebo” value ([1]; SBP on day 4, outpatient) was ~2.2 mmHg, the “Inpatient 12 h ABPM, difference to placebo” value ([1]; after 36 days of therapy) was “no significant differences” and the “Increase in outpatient 24 h SBP or DBP” value ([1]; day 36, distribution of individual changes) was “no evidence to suggest a significant increase”. For the same molecule, the “Observations with DBP increase >10 mmHg and absolute value >80 mmHg” value ([1]; day 36, outpatient) was 6.9%, the “Observations with SBP increase >10 mmHg and absolute value >130 mmHg” value ([1]; day 36, outpatient) was 5.0% and the “Observations with increase from baseline in SBP>30 mmHg” value ([1]; day 36, outpatient 24 h (0%)) was 4/1249. For the same molecule, the “Observations with increase from baseline in DBP>20 mmHg” value ([1]; day 36, outpatient 24 h (3%)) was 35/1249, the “Increase in change from baseline for SBP, DBP, and heart rate” value ([1]; inpatient ABPM, days 14 and 35) was 2.0-2.5 mmHg/bpm and the “Upper bound of one-sided 95% CI for BIIB074-placebo” value ([1]; majority of SBP and DBP comparisons on days 4, 15, 36) was < 2 mmHg. For the same molecule, the “Non-inferiority to placebo, outpatient 24 h SBP and DBP” value ([1]; one-sided 95% CI excluding effect >5 mmHg) was “Non-inferiority of BIIB074 compared to placebo was demonstrated”, the “BIIB074-Placebo difference in change of 24 h average DBP” value ([1]; Day 4) was 0.789 mmHg and the “BIIB074-Placebo difference in change of 24 h average SBP” value ([1]; Day 4) was 1.006 mmHg. The “LS Mean change in 24 h average DBP from baseline” value ([1]; Day 4, 300-400 mg bid) was 1.856 mmHg, the “LS Mean change in 24 h average SBP from baseline” value ([1]; Day 4, 300-400 mg bid) was 2.372 mmHg and the “BIIB074-Placebo difference in change of 24 h average DBP” value ([1]; Day 15) was 0.645 mmHg. For the same molecule, the “BIIB074-Placebo difference in change of 24 h average SBP” value ([1]; Day 15) was 0.294 mmHg, the “LS Mean change in 24 h average DBP from baseline” value ([1]; Day 15, 300-400 mg bid) was 0.907 mmHg and the “LS Mean change in 24 h average SBP from baseline” value ([1]; Day 15, 300-400 mg bid) was 0.915 mmHg. The “BIIB074-Placebo difference in change of 24 h average DBP” value ([1]; Day 36) was 0.287 mmHg, the “BIIB074-Placebo difference in change of 24 h average SBP” value ([1]; Day 36) was −0.507 mmHg and the “LS Mean change in 24 h average DBP from baseline” value ([1]; Day 36, 300-400 mg bid) was 0.201 mmHg. For the same molecule, the “LS Mean change in 24 h average SBP from baseline” value ([1]; Day 36, 300-400 mg bid) was −0.327 mmHg, the “Change in SBP and DBP, outpatient and inpatient ABPM” value ([1]; repeat doses for 36 days) was “lack of clinically relevant change” and the “AUCinf, Geo LS mean ratio” value [2, 3] was 1.68. For the same molecule, the “AUClast, Geo LS mean ratio” value [2, 3] was 1.69, the “Cmax, Geo LS mean ratio” value [2, 3] was 0.97 and the AUC(0-inf) ([2]; single dose BIIB074 alone) was 16000 ng·h/mL. For the same molecule, the AUC(0-t) ([2]; single dose BIIB074 alone) was 15700 ng·h/mL, the Cmax ([2]; single dose BIIB074 alone) was 1310 ng/mL and the AUC(0-inf) [2, 4] was 26900 ng·h/mL. The AUC(0-t) [2, 4] was 26500 ng·h/mL, the Cmax [2, 4] was 1260 ng/mL and the “Elimination with valproic acid” value ([2]; in vivo) was “prolonged”. The “Exposure (AUC) with valproic acid compared to BIIB074 alone” value ([2]; in vivo) was “increased”, the “Exposure based on AUCinf and AUClast higher with valproic acid than alone” value ([2]; in vivo) was ~70% and the “Change in Cmax with valproic acid compared to BIIB074 alone” value ([2]; in vivo, listed as BIIB074, hydrochloride) was “no change”. The “Plasma exposure higher with valproic acid at steady state than alone” value ([2]; single dose) was “approximately 1.7 fold”.
